Results: patent US7109174B2, “Anticonvulsant derivatives useful for preventing the development of type II diabetes mellitus and syndrome X” (Ortho-McNeil Pharmaceutical, Inc., priority 2000, dated 2006)

Legend:
[1] = system: Heterozygous Non-Diabetic Mice; assay: Plasma glucose, triglycerides and body weight in heterozygous non-diabetic littermates, 11 days oral dosage; assay type: in vivo; details: for Plasma Glucose % Change / Plasma Triglycerides % Change: versus vehicle; for Change in Body Weight / Plasma Glucose Plasma Conc. / Plasma Triglycerides Plasma Conc.: ± SEM
Procedure: (§1) Six to seven week old female C57 BLK SIJ-m^+/^+ Lepr^db mice (db/db) and heterozygous littermates were purchased from The Jackson Laboratory (Bar Harbor, Me.). Upon arrival the mice were quarantined for 5 days and housed in pairs in shoe-box cages containing ALPHA-dri® bedding (Shepherd Speciality Papers, Inc., Kalamazoo, Mich.). The mice were maintained at an ambient temperature of 21 to 23° C. on a 12 hour-12 hour light-dark schedule and given access to water and food ad libitum. The diet was comprised of NIH (National Institutes of Health) Rat and Mouse/Auto 6F Reduced Fat Diet No. 5K52 (PMI Nutrition International Inc., Brentwood, Mo.).
(§2) The vehicle, used as a reference and for test compounds, was 0.5% methylcellulose dissolved in water. The compounds were either fully dissolved or uniformly suspended in the vehicle when administered to the mice.
(§3) The db/db mice were randomly separated into five groups of eight, as were the heterozygous littermates. The groups were as follows: one vehicle control group and four groups that each received one of four doses of topiramate (TPM) (10, 30, 100, or 300 mg/kg, respectively). Topiramate or vehicle was administered orally by gavage once a day during the 8th hour of the light portion of the light-dark cycle.
(§4) Between 18 and 24 hours after the last dose was administered, the mice were anesthetized with CO2/O2 (70:30) and blood from the retro-orbital sinus puncture was collected into 2 mL heparinized snap-top polypropylene tubes, then placed in ice.
(§5) Plasma was separated from blood cells by centrifugation (15 minutes at 1600 g). For samples not assayed immediately, the plasma was transferred into 96-well plates and frozen at −70° C.
(§6) Glucose and triglycerides were assayed using standard procedures for blood clinical laboratories. Specifically, the samples were analyzed using an automated Hitachi 717 autoanalyzer (Boehringer Mannheim/Hitachi 717 Autoanalyzer, Boehringer Mannheim Laboratory Systems Division, Indianapolis, Ind.). A statistical analysis of data for the drug-treated groups compared to data for the vehicle group was performed using the one-way analysis of variance (ANOVA) with Dunnett's Multiple Comparisons test.
(§7) Following the procedure described above, the effect of topiramate on plasma glucose and triglyceride levels was determined for female diabetic db/db mice and littermates, following 11 days oral dosage, with results as listed in Table 3 and 4. Body weights are in Table 5. The abbreviation N represents the number of animals per study group.

[2] = system: db/db mice (Homozygous Diabetic Mice); assay: Plasma glucose, triglycerides and body weight in female diabetic db/db mice, 11 days oral dosage; assay type: in vivo; details: for Plasma Glucose % Change / Plasma Triglycerides % Change / Change in Body Weight / Plasma Triglycerides Plasma Conc. / Plasma Glucose Plasma Conc.: 11 days; for Plasma Glucose % Change / Plasma Triglycerides % Change: versus vehicle; for Change in Body Weight / Plasma Triglycerides Plasma Conc. / Plasma Glucose Plasma Conc.: ± SEM
Procedure: as §1, §2, §3, §4, §5, §6, §7

[3] = 100 mg/kg oral once a day, P < 0.01
[4] = 300 mg/kg oral once a day, P < 0.01

SMILES: CC1(C)O[C@@H]2[C@@H](CO[C@@]3(COS(N)(=O)=O)OC(C)(C)O[C@@H]23)O1 [Topiramate, 2,3:4,5-bis-O-(1-methylethylidene)-β-D-fructopyranose sulfamate]
- Plasma Glucose % Change ([1]; 10 mg/kg oral once a day): −1.2%
- Plasma Triglycerides % Change ([1]; 10 mg/kg oral once a day): −0.3%
- Change in Body Weight ([1]; 10 mg/kg oral once a day): 0.5 ± 0.2 g
- Plasma Glucose Plasma Conc. ([1]; 10 mg/kg oral once a day): 145 ± 6 mg/dL
- Plasma Triglycerides Plasma Conc. ([1]; 10 mg/kg oral once a day): 141 ± 13 mg/dL
- Plasma Glucose % Change ([1]; 30 mg/kg oral once a day): +3.8%
- Plasma Triglycerides % Change ([1]; 30 mg/kg oral once a day): −17.5%
- Change in Body Weight ([1]; 30 mg/kg oral once a day): 0.0 ± 0.3 g
- Plasma Glucose Plasma Conc. ([1]; 30 mg/kg oral once a day): 152 ± 6 mg/dL
- Plasma Triglycerides Plasma Conc. ([1]; 30 mg/kg oral once a day): 116 ± 6 mg/dL
- Plasma Glucose % Change ([1]; 100 mg/kg oral once a day): +0.8%
- Plasma Triglycerides % Change ([1]; 100 mg/kg oral once a day): −34.8%
- Change in Body Weight ([1]; 100 mg/kg oral once a day): 0.2 ± 0.2 g
- Plasma Glucose Plasma Conc. ([1]; 100 mg/kg oral once a day): 148 ± 7 mg/dL
- Plasma Triglycerides Plasma Conc. [1, 3]: 92 ± 6 mg/dL
- Plasma Glucose % Change ([1]; 300 mg/kg oral once a day): −17.2%
- Plasma Triglycerides % Change ([1]; 300 mg/kg oral once a day): −1.8%
- Plasma Triglycerides Plasma Conc. ([1]; 300 mg/kg oral once a day): 138 ± 15 mg/dL
- Plasma Glucose Plasma Conc. [1, 4]: 121 ± 7 mg/dL
- Change in Body Weight ([1]; 300 mg/kg oral once a day, P < 0.05): -2.2 ± 0.5 g
- Plasma Glucose % Change ([2]; 10 mg/kg oral once a day): −27.4%
- Plasma Triglycerides % Change ([2]; 10 mg/kg oral once a day): −18.9%
- Change in Body Weight ([2]; 10 mg/kg oral once a day): 1.7 ± 0.9 g
- Plasma Triglycerides Plasma Conc. ([2]; 10 mg/kg oral once a day): 277 ± 30 mg/dL
- Plasma Glucose Plasma Conc. ([2]; 10 mg/kg oral once a day, P < 0.05): 382 ± 46 mg/dL
- decrease in blood glucose vs. control ([2]; 10 mg/kg/day, P<0.05): 27%
- Plasma Glucose % Change ([2]; 30 mg/kg oral once a day): −34.6%
- Plasma Triglycerides % Change ([2]; 30 mg/kg oral once a day): −11.2%
- Change in Body Weight ([2]; 30 mg/kg oral once a day): 2.6 ± 1.0 g
- Plasma Triglycerides Plasma Conc. ([2]; 30 mg/kg oral once a day): 303 ± 29 mg/dL
- Plasma Glucose Plasma Conc. ([2]; 30 mg/kg oral once a day, P < 0.01): 344 ± 31 mg/dL
- decrease in blood glucose vs. control ([2]; 30 mg/kg/day, P<0.01): 35%
- Plasma Glucose % Change ([2]; 100 mg/kg oral once a day): −36.6%
- Plasma Triglycerides % Change ([2]; 100 mg/kg oral once a day): −33.7%
- Change in Body Weight ([2]; 100 mg/kg oral once a day): 1.5 ± 0.7 g
- Plasma Glucose Plasma Conc. [2, 3]: 333 ± 42 mg/dL
- Plasma Triglycerides Plasma Conc. [2, 3]: 227 ± 15 mg/dL
- decrease in blood glucose vs. control ([2]; 100 mg/kg/day, P<0.01): 37%
- Plasma Glucose % Change ([2]; 300 mg/kg oral once a day): −60.5%
- Plasma Triglycerides % Change ([2]; 300 mg/kg oral once a day): −41.7%
- Change in Body Weight ([2]; 300 mg/kg oral once a day): 0.7 ± 2.4 g
- Plasma Glucose Plasma Conc. [2, 4]: 207 ± 41 mg/dL
- Plasma Triglycerides Plasma Conc. [2, 4]: 199 ± 16 mg/dL
- decrease in blood glucose vs. control ([2]; 300 mg/kg/day, P<0.01): 61%
- decrease in plasma triglyceride levels versus diabetic controls ([2]; 100 and 300 mg/kd/day, P<0.01): up to 42%
